Assay results reported in US9006454B2, “Dihydroorotate dehydrogenase inhibitors” (Merck Serono S.A., priority 2009, dated 2015).

What was measured:
Jurkat cells = assay: Measurement of cell proliferation (Jurkat cell), XTT assay; type: cell-based; settings: for EC50: XTT cell viability; for inhibition at 1 µM: compound at 1 uM, read-out: % inh Jurkat_cells @ 1 uM (%)
Experimental: See also Roehm, N et al [1991] An improved colorimetric assay for cell proliferation and viability utilizing the tetrazolium salt XTT. J. Immunol. Methods 142:257-265.
Culture Jurkat cells in T-25 flasks at a density of 0.2×10^6/ml 2-3 days before the day of experiment set up.
Centrifuge Jurkat T-cell suspension at 1200 rpm for 10 minutes and resuspend cells again in fresh RPMI medium with 10% FBS.
Count the cells and dilute suspension to a density of 2×10^6 cells/ml. Seed 50 μL of this suspension in each well of a 96 well plate (100,000 cells per well). Keep the edges of the plate empty to avoid evaporation.
Serially dilute DMSO stocks of compounds to get different concentrations for an EC50 curve. 50 μL of compound diluted in media (2× concentration required in well) is added to each well. DMSO concentration should be kept constant at 0.25-0.5% for all wells.
Typically, for all compounds with IC50<1 μM, compound concentration can start at 10 μM followed by half log dilutions for a total of 8-10 concentrations. Each concentration has to be tested in triplicate.
Include controls such as cells without compound (with same DMSO concentration as compound wells), and media control
Incubate the 96 well plate in a CO2 incubator at 37° C. for 72 hrs before determining cell viability using XTT assay
XTT assay: to each well, add 50 μL of 1 mg/ml XTT solution with 20 μl of PMS/mL. Read the plates after 2 hours at 465 nm using the spectrophotometer. XTT reading for media without cells is used as background reading.
Calculate % cell viability assuming that the cells without compound are 100% viable.
Plot % cell viability as a function of concentration and determine EC50 by using software such as Graph Pad Prism to fit the curve.

DHODH = DHODH (Homo sapiens (Human), UniProt Q02127); assay: DHODH activity assay (coupled enzyme assay, DCIP reduction, absorbance at 610 nm); type: biochemical; settings: for inhibition at 10 µM / inh @ 10 uM hDHODH (%): compound at 10 uM; for inhibition at 10 µM: read-out: inh @ 10 uM hDHODH (%)
Chain of DHODH (Q02127 whole entry): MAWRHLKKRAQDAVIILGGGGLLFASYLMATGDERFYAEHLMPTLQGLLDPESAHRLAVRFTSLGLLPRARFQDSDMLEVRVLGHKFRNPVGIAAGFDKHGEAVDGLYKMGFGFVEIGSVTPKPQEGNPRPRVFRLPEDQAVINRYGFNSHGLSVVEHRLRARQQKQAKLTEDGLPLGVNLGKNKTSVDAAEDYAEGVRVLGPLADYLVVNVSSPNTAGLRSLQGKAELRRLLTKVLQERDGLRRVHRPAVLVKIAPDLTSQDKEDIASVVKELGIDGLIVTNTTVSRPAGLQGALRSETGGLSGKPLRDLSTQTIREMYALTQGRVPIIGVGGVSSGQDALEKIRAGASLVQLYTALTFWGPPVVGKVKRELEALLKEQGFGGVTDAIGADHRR
Experimental: The DHODH activity assay is a coupled enzyme assay in which oxidation of DHO and subsequent reduction of ubiquinone are stoichiometrically equivalent to the reduction of DCIP ([…]). The reduction of DCIP is accompanied by a loss of absorbance at 610 nm.
Buffer Preparation: 50 mM tris HCl, 150 mM KCl, and pH 8.0, 0.8% triton.
5 μL of Dimethyl sulfoxide or a compound of formula I in DMSO solution was added to the wells of a 96 well plate. Compounds of formula I were measured at 10 μM.
Protein along with buffer was added, so that the total volume including the DMSO was 87 μL. Compound and protein were incubated for half an hour at room temperature after mixing. 5 μL of 20 mM solution of L-Dihydroorotic acid, 5 μL of 2 mM solution of Decylubiquinone and 3 μL of 2 mM solution of 2,6-Dichloroindophenol sodium salt hydrate were added to the above solution (total assay volume 100 μL). The mixture was stirred for 2 min and absorbance was recorded at every 10 min at 610 nanometers.
Percent Inhibition is Calculated as Follows
Positive control contains DMSO, buffer, enzyme and substrates
No Enzyme reaction contains DMSO, buffer and substrates
IC50 determination: • A 2 mM DMSO stock of the compound of formula I to be examined was prepared. ⅓rd dilutions were made as follows:
5 μL of each stock of compound of formula I (solution indicated in column 4 of table) was used for each 100 μL assay. Therefore, 5 μL of the 2 mM stock provided 100 μL of 100 μM solution of compound of formula I, when made up with buffer, protein and substrate. See also: Ulrich et al. (2001) Eur. J. Biochem. 268, 1861-1868.

EC50 (Jurkat cells; Homo sapiens, Jurkat, 72 h) [µM]	IC50 (DHODH) [µM]	inhibition at 10 µM (DHODH) [%]	inh @ 10 uM hDHODH (%) (DHODH)	EC50 (Jurkat cells; 72 hrs) [µM]	Compound	inhibition at 1 µM (Jurkat cells; Homo sapiens, Jurkat) [%]
0.263	0.304	102			Cc1cc(C(=O)O)c2nc(-c3ccc(-c4ccccc4)cc3)[nH]c2c1 [I14]	76.9
		85			O=C(O)c1cccc2[nH]c(-c3ccc(-c4ccccc4O)cc3)nc12 [I168]	34
		82			O=C(O)c1cc(F)cc2nc(-c3ccc(-c4ccc(F)cc4F)cc3F)[nH]c12 [I34]	41.8
		16.8			N#Cc1cccc2nc(-c3ccc(-c4ccccc4)cc3)[nH]c12 [I38]	8
	4.79	78.8			Cc1cc(C(=O)O)c2nc(-c3ccc(-c4ccccc4)cc3)n(CCO)c2c1 [I93]	29
	0.808	101			O=C(O)c1cccc2[nH]c(-c3c(F)c(F)c(-c4ccc(F)cc4)c(F)c3F)nc12 [I133]	54.7
	0.446	87.9			Cc1cc(C(N)=O)c2nc(-c3c(F)c(F)c(-c4ccccc4)c(F)c3F)[nH]c2c1 [I102]	64.2
		5.7			Cc1cc(C(=O)O)c2[nH]c(-c3ccc(-n4ccccc4=O)cc3)nc2c1 [I64]	1.5
		7.1			Cc1cc(C(=O)O)c2[nH]c(-c3c[nH]c4ccccc34)nc2c1 [I42]	
	0.755	89.9			Cc1cc(C(=O)O)c2nc(-c3ccc(-c4ccc(OCc5cccnc5)cc4)cc3)[nH]c2c1 [I120]	66.1
0.393	0.177	100			Cc1cc(C(=O)O)c2nc(-c3c(F)cc(-c4ccccc4)cc3F)[nH]c2c1 [I48]	88.1
	2.15	80			Cc1cc(C(=O)O)c2c(c1)nc(-c1ccc(-c3ccc(O)cc3)cc1)n2CCO [I97]	37.6
		47.5			O=C(O)c1cccc2[nH]c(-c3ccc(-c4ccc(OCc5ccccc5)cc4)cc3)nc12 [I190]	16.5
			2.1		COc1cccc(-c2ccc(-c3nc4c(C(=O)O)cccc4[nH]3)c(F)c2)c1 [I4]	
		13.7			COc1cccc(-c2ccc(-c3nc4c(C(=O)O)cccc4[nH]3)cc2)c1 [I11]	9.4
0.202	0.595	94.8			O=C(O)c1cccc2cc(-c3ccc(-c4ccccc4)cc3)[nH]c12 [I61]	67.2
		60			O=C(O)c1cccc2[nH]c(-c3ccc(-c4ccc(Oc5ccccn5)cc4)cc3)nc12 [I172]	21
	1.22	66.9			O=C(O)c1cccc2[nH]c(-c3c(F)c(F)c(-c4ccc(F)c(F)c4)c(F)c3F)nc12 [I130]	23.2
		34.6			N#Cc1ccc(Oc2ccc(-c3nc4cccc(C(=O)O)c4[nH]3)cc2)cc1 [I77, 2-[4-(4-Cyano-phenoxy)-phenyl]-3H-benzoimidazole-4-carboxylic acid]	11.5
	0.659	97.3			O=C(O)c1cc(Cl)cc2[nH]c(-c3ccc(-c4ccccc4)cc3F)nc12 [I44]	64.9
		26.6			O=C(O)c1cccc2[nH]c(-c3ccc(S(=O)(=O)c4ccccc4)cc3)nc12 [I54]	8
		51.3			O=C(O)c1cccc2[nH]c(-c3ccc(-c4ccc(O)cc4)cc3)nc12 [I177]	40.5
		77.8			Cc1cc(C(=O)O)c2nc(-c3ccc(-c4ccsc4)cc3)[nH]c2c1 [I23]	33.9
	0.616		92.6	0.753	COc1cccc(-c2ccc(-c3nc4c(C(=O)O)cccc4[nH]3)c(F)c2)c1 [I3]	

EC50 (Jurkat cells; Homo sapiens, Jurkat, 72 h) [µM]	IC50 (DHODH) [µM]	inhibition at 10 µM (DHODH) [%]	inh @ 10 uM hDHODH (%) (DHODH)	EC50 (Jurkat cells; 72 hrs) [µM]	Compound	inhibition at 1 µM (Jurkat cells; Homo sapiens, Jurkat) [%]
0.45	0.407	99.2			Cc1cc(C(=O)O)c2nc(-c3ccc(-c4cccnc4)cc3)[nH]c2c1 [I59]	73.5
	7.2	64			O=C(O)c1cccc2[nH]c(-c3cccc(Oc4ccccc4)c3)nc12 [I9]	20
	0.116	95			Cc1cc(C(=O)O)c2nc(-c3c(F)c(F)c(-c4ccccc4)c(F)c3F)n(C)c2c1 [I113]	
		80			O=C(O)c1cccc2[nH]c(-c3ccc(-c4ccc(CO)cc4)cc3)nc12 [I173]	44
		56.6			Cc1cc(C(=O)O)c2[nH]c(-c3ccc(-c4ccccn4)cc3)nc2c1 [I74, 6-Methyl-2-(4-pyridin-2-yl-phenyl)-3H-benzoimidazole-4-carboxylic acid]	18.4
		38			Cc1cc(C(=O)O)c2nc(-c3ccc(Oc4c(F)c(F)c(F)c(F)c4F)cc3)[nH]c2c1 [I72, 6-Methyl-2-(4-pentafluorophenyloxy-phenyl)-1H-benzoimidazole-4-carboxylic acid]	9
	0.368		94.3	0.356	COc1cccc(-c2ccc(-c3nc4c(C(=O)O)cccc4[nH]3)c(F)c2)c1 [I5]	
	0.018	79.3			O=C(O)c1cccc2[nH]c(-c3c(F)c(F)c(-c4ccccc4F)c(F)c3F)nc12 [I131]	78.8
		32.1			Cc1cc(C(=O)O)c2[nH]c(-c3ccc(-c4ccccc4)cc3)cc2c1 [I187]	15.3
		43			Cc1cc(C(=O)O)c2nc(-c3ccc(-c4ccc(S(N)(=O)=O)cc4)cc3)[nH]c2c1 [I174]	9
		57.3			O=C(O)c1cccc2[nH]c(-c3ccc(-c4ccsc4)cc3)nc12 [I22]	15.3
	1.05	84.7			Cc1cc(C(=O)O)c2nc(-c3ccc(-c4ccc(Oc5ccccc5C=O)cc4)cc3)[nH]c2c1 [I142]	54.5
		8.4			O=C(O)c1cccc2nc(-c3ccc(N4CCOCC4)cc3)[nH]c12 [I62]	
		9			Cc1ccc(-c2ccc(-c3nc4c(C(=O)O)cccc4[nH]3)cc2)cc1 [I12]	
		9.4			Cc1cc(C(=O)O)c2nc(-c3ccc(N4CCCCCC4=O)cc3)[nH]c2c1 [I80, 6-Methyl-2-[4-(2-oxo-azepan-1-yl)-phenyl]-1H-benzoimidazole-4-carboxylic acid]	
		8.4			Cc1nc(-c2ccc(-c3nc4cccc(C(=O)O)c4[nH]3)cc2)oc1C [I66]	
		30.2			Cn1c(-c2ccc(-c3ccccc3)cc2)nc2c(C(=O)O)cccc21 [I7]	
	8.45	44.3			Cc1cc(C(=O)O)c2nc(-c3ccc(-c4cnccn4)cc3)[nH]c2c1 [I147]	
		10.6			O=C(O)c1cccc2[nH]c(-c3ccc(-c4ccc(C(F)(F)F)cc4)cc3)nc12 [I13]	
		5.3			COC(=O)c1cccc2nc(-c3ccc(-c4ccccc4)cc3)[nH]c12 [I79, 2-Biphenyl-4-yl-1H-benzoimidazole-4-carboxylic acid methyl ester]	
		5.6			FC(F)(F)c1cccc2[nH]c(-c3ccc(-c4ccccc4)cc3)nc12 [I43]	
	1.6	90.5			Cn1c(-c2ccc(-c3ccccc3)cc2)nc2cccc(C(=O)O)c21 [I8]	
	4.95	66.1			O=C(O)c1cccc2[nH]c(-c3ccc(OCc4ccccc4)cc3)nc12 [I2]	
		59.5			Cc1cc(C(=O)O)c2nc(C#Cc3ccccc3)[nH]c2c1 [I84, 6-Methyl-2-phenylethynyl-1H-benzoimidazole-4-carboxylic acid]	
